Test results: PubChem BioAssay AID2060894 (Molecular Pharmacology Branch, DTP, NCI, 2025)

Test system: K12877-001-R-J1-PDC complex spheroid viability
Test: Anticancer human tumor K12877-001-R-J1-PDC patient-derived lung adenocarcinoma cell line growth inhibition [RAS]
Conditions: for IC50: curve of first compound; for viability, T/C: stronger effect = lower value; active means viability on the fitted dose curve at most 10% of control; inactive means the rest
In short: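 Multi-cell-type spheroids: tumor cells plus HUVEC endothelial cells and mesenchymal stem cells. RAS-pathway inhibitors were combined with targeted agents, each dosed in half-log steps down from clinical Cmax, or from 10 microM when Cmax was unknown.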

[1] = second compound 0.0316 µM, first compound 0.0316 µM
[2] = second compound 0.0316 µM, first compound 0.1 µM
[3] = second compound 0.0316 µM, first compound 0.316 µM
[4] = second compound 0.0316 µM, first compound 1 µM
[5] = second compound 0.1 µM, first compound 0.0316 µM
[6] = second compound 0.1 µM, first compound 0.1 µM
[7] = second compound 0.1 µM, first compound 0.316 µM
[8] = second compound 0.1 µM, first compound 1 µM
[9] = second compound 0.316 µM, first compound 0.0316 µM
[10] = second compound 0.316 µM, first compound 0.1 µM
[11] = second compound 0.316 µM, first compound 0.316 µM
[12] = second compound 0.316 µM, first compound 1 µM
[13] = second compound 1 µM, first compound 0.0316 µM
[14] = second compound 1 µM, first compound 0.1 µM
[15] = second compound 1 µM, first compound 0.316 µM
[16] = second compound 1 µM, first compound 1 µM
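Further: spheroids exposed to agents for one week before readout.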
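Wherever viability, T/C is given: tumour cells co-cultured with HUVEC and mesenchymal stem cells in spheroids.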

CC1(C)CCC(Nc2ncc(C(F)(F)F)c(-c3c[nH]c4c(P(C)(C)=O)c(C#N)ccc34)n2)CN1 (stereo unspecified) + C=CC(=O)N1CCN(c2nc(OCC3CCCN3C)nc3c(F)c(-c4nc(N)cc(C)c4C(F)(F)F)c(Cl)cc23)C(C)C1
76 nM: IC50 (second compound 0.01 µM)
38.5 nM: IC50 (second compound 0.1 µM)
32.5 nM: IC50 (second compound 0.00316 µM)
98 nM: IC50 (second compound 1 µM)
inactive: viability, T/C (second compound 0.00316 µM, first compound 0.000949 µM) 107% | viability, T/C (second compound 0.00316 µM, first compound 0.003 µM) 85.1% | viability, T/C (second compound 0.00316 µM, first compound 0.00949 µM) 74.4% | viability, T/C (second compound 0.00316 µM, first compound 0.03 µM) 53.2% | viability, T/C (second compound 0.00316 µM, first compound 0.0949 µM) 30.1% | viability, T/C (second compound 0.00316 µM, first compound 0.3 µM) 36.3% | viability, T/C (second compound 0.01 µM, first compound 0.000949 µM) 92.3% | viability, T/C (second compound 0.01 µM, first compound 0.003 µM) 78.3% | viability, T/C (second compound 0.01 µM, first compound 0.00949 µM) 62.5% | viability, T/C (second compound 0.01 µM, first compound 0.03 µM) 59.1% | viability, T/C (second compound 0.01 µM, first compound 0.0949 µM) 47.4% | viability, T/C (second compound 0.01 µM, first compound 0.3 µM) 43.4% | viability, T/C (second compound 0.0316 µM, first compound 0.000949 µM) 87% | viability, T/C (second compound 0.0316 µM, first compound 0.003 µM) 73.6% | viability, T/C (second compound 0.0316 µM, first compound 0.00949 µM) 63.9% | viability, T/C (second compound 0.0316 µM, first compound 0.03 µM) 57.2% | viability, T/C (second compound 0.0316 µM, first compound 0.0949 µM) 42% | viability, T/C (second compound 0.0316 µM, first compound 0.3 µM) 33.1% | viability, T/C (second compound 0.1 µM, first compound 0.000949 µM) 80.1% | viability, T/C (second compound 0.1 µM, first compound 0.003 µM) 76.8% | viability, T/C (second compound 0.1 µM, first compound 0.00949 µM) 63.8% | viability, T/C (second compound 0.1 µM, first compound 0.03 µM) 52.6% | viability, T/C (second compound 0.1 µM, first compound 0.0949 µM) 41.6% | viability, T/C (second compound 0.1 µM, first compound 0.3 µM) 32.9% | viability, T/C (second compound 0.316 µM, first compound 0.000949 µM) 87.7% | viability, T/C (second compound 0.316 µM, first compound 0.003 µM) 79.6% | viability, T/C (second compound 0.316 µM, first compound 0.00949 µM) 66.2% | viability, T/C (second compound 0.316 µM, first compound 0.03 µM) 54.8% | viability, T/C (second compound 0.316 µM, first compound 0.0949 µM) 48.1% | viability, T/C (second compound 0.316 µM, first compound 0.3 µM) 35.1% | viability, T/C (second compound 1 µM, first compound 0.000949 µM) 85.6% | viability, T/C (second compound 1 µM, first compound 0.003 µM) 77.6% | viability, T/C (second compound 1 µM, first compound 0.00949 µM) 70.5% | viability, T/C (second compound 1 µM, first compound 0.03 µM) 62.8% | viability, T/C (second compound 1 µM, first compound 0.0949 µM) 49.7% | viability, T/C (second compound 1 µM, first compound 0.3 µM) 38.3%
46.6 nM: IC50 (second compound 0.0316 µM)
59 nM: IC50 (second compound 0.316 µM)

Nc1ccn(C2OC(CO)C(O)C2(F)F)c(=O)n1 (stereo unspecified) + C=CC(=O)N1CCN(c2nc(OCC3CCCN3C)nc3c(F)c(-c4nc(N)cc(C)c4C(F)(F)F)c(Cl)cc23)C(C)C1
16.9 nM: IC50 (second compound 0.01 µM)
active: viability, T/C (second compound 0.00316 µM, first compound 0.0316 µM) 6.55% | viability, T/C (second compound 0.00316 µM, first compound 0.1 µM) 4.24% | viability, T/C (second compound 0.00316 µM, first compound 0.316 µM) 4.05% | viability, T/C (second compound 0.00316 µM, first compound 1 µM) 3.99% | viability, T/C (second compound 0.01 µM, first compound 0.1 µM) 4.22% | viability, T/C (second compound 0.01 µM, first compound 0.316 µM) 4.2% | viability, T/C (second compound 0.01 µM, first compound 1 µM) 4.01% | viability, T/C [1] 6.08% | viability, T/C [2] 3.45% | viability, T/C [3] 5.01% | viability, T/C [4] 4.23% | viability, T/C [5] 6.15% | viability, T/C [6] 4.69% | viability, T/C [7] 4.71% | viability, T/C [8] 3.18% | viability, T/C [9] 6.26% | viability, T/C [10] 4.95% | viability, T/C [11] 4.16% | viability, T/C [12] 4.03% | viability, T/C [13] 6.51% | viability, T/C [14] 3.92% | viability, T/C [15] 4.72% | viability, T/C [16] 5.35%
16.6 nM: IC50 (second compound 0.1 µM)
inactive: viability, T/C (second compound 0.00316 µM, first compound 0.00316 µM) 95.9% | viability, T/C (second compound 0.00316 µM, first compound 0.01 µM) 94.4% | viability, T/C (second compound 0.01 µM, first compound 0.00316 µM) 93.7% | viability, T/C (second compound 0.01 µM, first compound 0.01 µM) 83% | viability, T/C (second compound 0.01 µM, first compound 0.0316 µM) 10.8% | viability, T/C (second compound 0.0316 µM, first compound 0.00316 µM) 83.5% | viability, T/C (second compound 0.0316 µM, first compound 0.01 µM) 81.2% | viability, T/C (second compound 0.1 µM, first compound 0.00316 µM) 87.8% | viability, T/C (second compound 0.1 µM, first compound 0.01 µM) 84.7% | viability, T/C (second compound 0.316 µM, first compound 0.00316 µM) 84.9% | viability, T/C (second compound 0.316 µM, first compound 0.01 µM) 70.4% | viability, T/C (second compound 1 µM, first compound 0.00316 µM) 83.5% | viability, T/C (second compound 1 µM, first compound 0.01 µM) 63.4%
17.9 nM: IC50 (second compound 0.00316 µM)
13.1 nM: IC50 (second compound 1 µM)
16.1 nM: IC50 (second compound 0.0316 µM)
14.4 nM: IC50 (second compound 0.316 µM)

NC1c2ccccc2OC12CCN(c1cnc3c(N4CCCc5ncccc54)n[nH]c3n1)CC2 (stereo unspecified) + C#Cc1c(F)ccc2cc(O)cc(-c3ncc4c(N5CC6CCC(C5)N6)nc(OCC56CCCN5CC(F)C6)nc4c3F)c12
> 10000 nM: IC50 (second compound 0.0316 µM) | IC50 (second compound 0.1 µM) | IC50 (second compound 0.316 µM) | IC50 (second compound 1 µM) | IC50 (second compound 3.16 µM) | IC50 (second compound 10 µM)
inactive: viability, T/C [1] 104% | viability, T/C [2] 92.3% | viability, T/C [3] 86.8% | viability, T/C [4] 93.1% | viability, T/C (second compound 0.0316 µM, first compound 3.16 µM) 85.3% | viability, T/C (second compound 0.0316 µM, first compound 10 µM) 50.4% | viability, T/C [5] 106% | viability, T/C [6] 91.1% | viability, T/C [7] 90% | viability, T/C [8] 78.9% | viability, T/C (second compound 0.1 µM, first compound 3.16 µM) 84.2% | viability, T/C (second compound 0.1 µM, first compound 10 µM) 58.9% | viability, T/C [9] 98.4% | viability, T/C [10] 93.2% | viability, T/C [11] 88.5% | viability, T/C [12] 86.8% | viability, T/C (second compound 0.316 µM, first compound 3.16 µM) 74.2% | viability, T/C (second compound 0.316 µM, first compound 10 µM) 55.8% | viability, T/C [13] 105% | viability, T/C [14] 97.1% | viability, T/C [15] 86.8% | viability, T/C [16] 87.6% | viability, T/C (second compound 1 µM, first compound 3.16 µM) 71.2% | viability, T/C (second compound 1 µM, first compound 10 µM) 54.8% | viability, T/C (second compound 3.16 µM, first compound 0.0316 µM) 99.7% | viability, T/C (second compound 3.16 µM, first compound 0.1 µM) 84.8% | viability, T/C (second compound 3.16 µM, first compound 0.316 µM) 104% | viability, T/C (second compound 3.16 µM, first compound 1 µM) 87.8% | viability, T/C (second compound 3.16 µM, first compound 3.16 µM) 72.7% | viability, T/C (second compound 3.16 µM, first compound 10 µM) 55.1% | viability, T/C (second compound 10 µM, first compound 0.0316 µM) 90.4% | viability, T/C (second compound 10 µM, first compound 0.1 µM) 97.6% | viability, T/C (second compound 10 µM, first compound 0.316 µM) 102% | viability, T/C (second compound 10 µM, first compound 1 µM) 91.8% | viability, T/C (second compound 10 µM, first compound 3.16 µM) 64.9% | viability, T/C (second compound 10 µM, first compound 10 µM) 63.8%
